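The compound was tested at five concentrations on cells cultured in 96-well plates, with a 48-hour exposure period. TGI: concentration producing complete growth inhibition.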
Experiments:
Assay in all cases: inhibition of tumour cell growth, NCI panel, 48 h
OVCAR-3 ovarian = test system: OVCAR-3 ovarian
PC-3 prostate = test system: PC-3 prostate
MDA-MB-435 = test system: MDA-MB-435
OVCAR-5 ovarian = test system: OVCAR-5 ovarian
NCI-H460 lung = test system: NCI-H460 lung
MOLT-4 leukemia = test system: MOLT-4 leukemia
K-562 leukemia = test system: K-562 leukemia
HCC-2998 colon = test system: HCC-2998 colon
KM12 colon = test system: KM12 colon
TK-10 renal = test system: TK-10 renal
HOP-62 NSCLC = test system: HOP-62 NSCLC
CCRF-CEM leukemia = test system: CCRF-CEM leukemia
NCI/ADR-RES ovarian = test system: NCI/ADR-RES ovarian
SNB-19 CNS = test system: SNB-19 CNS
UACC-257 melanoma = test system: UACC-257 melanoma
A498 renal = test system: A498 renal
ACHN renal = test system: ACHN renal
COLO 205 colon = test system: COLO 205 colon
RXF 393 renal = test system: RXF 393 renal
CAKI-1 renal = test system: CAKI-1 renal
EKVX NSCLC = test system: EKVX NSCLC
MDA-N = test system: MDA-N
SK-MEL-5 melanoma = test system: SK-MEL-5 melanoma
SK-MEL-28 melanoma = test system: SK-MEL-28 melanoma
SK-MEL-2 melanoma = test system: SK-MEL-2 melanoma
SK-OV-3 ovarian = test system: SK-OV-3 ovarian
HCT-15 colon = test system: HCT-15 colon
UO-31 renal = test system: UO-31 renal
786-0 renal = test system: 786-0 renal
SNB-75 CNS = test system: SNB-75 CNS
OVCAR-8 ovarian = test system: OVCAR-8 ovarian
HT29 colon = test system: HT29 colon
SN12C renal = test system: SN12C renal
RPMI-8226 leukemia = test system: RPMI-8226 leukemia
HCT-116 colon = test system: HCT-116 colon
IGROV1 ovarian = test system: IGROV1 ovarian
SF-268 CNS = test system: SF-268 CNS
M14 melanoma = test system: M14 melanoma
DU-145 prostate = test system: DU-145 prostate
SF-539 CNS = test system: SF-539 CNS
MDA-MB-231 breast = test system: MDA-MB-231 breast
U251 CNS = test system: U251 CNS
UACC-62 melanoma = test system: UACC-62 melanoma
SR leukemia = test system: SR leukemia
HL-60(TB) leukemia = test system: HL-60(TB) leukemia
T-47D breast = test system: T-47D breast
BT-549 breast = test system: BT-549 breast
SW-620 colon = test system: SW-620 colon
MCF7 breast = test system: MCF7 breast
MALME-3M melanoma = test system: MALME-3M melanoma
A549 NSCLC = test system: A549 NSCLC
NCI-H522 lung = test system: NCI-H522 lung
HS 578T breast = test system: HS 578T breast
NCI-H226 lung = test system: NCI-H226 lung
OVCAR-4 ovarian = test system: OVCAR-4 ovarian
LOX IMVI melanoma = test system: LOX IMVI melanoma
HOP-92 NSCLC = test system: HOP-92 NSCLC
SF-295 CNS = test system: SF-295 CNS
NCI-H23 lung = test system: NCI-H23 lung

Measured: TGI

Cc1cc2c(s1)C(N)CC2=O (stereo unspecified)
not listed: NCI-H522 lung | HS 578T breast | NCI-H226 lung | OVCAR-4 ovarian | LOX IMVI melanoma | HOP-92 NSCLC | SF-295 CNS | NCI-H23 lung
> 100 µM: all other assays above

O=[N+]([O-])c1ccc2c(c1)Sc1ccccc1N2
81.9 µM: SNB-75 CNS
not listed: SK-MEL-2 melanoma | SK-OV-3 ovarian | M14 melanoma | UACC-62 melanoma | T-47D breast
> 100 µM: all other assays above

CC(C)(C)OC(=O)NCCc1ccc(N)cc1
not listed: OVCAR-5 ovarian | KM12 colon | A498 renal | RXF 393 renal | CAKI-1 renal | SK-MEL-2 melanoma | SK-OV-3 ovarian | 786-0 renal | SNB-75 CNS | SN12C renal | SF-539 CNS | BT-549 breast | HS 578T breast | NCI-H226 lung | HOP-92 NSCLC | NCI-H23 lung
> 100 µM: all other assays above

CCOC(=O)C1=C(Cl)c2cccnc2C1=O
72.7 µM: LOX IMVI melanoma
43.7 µM: OVCAR-3 ovarian
64.7 µM: MDA-MB-435
31.6 µM: NCI-H23 lung
37.9 µM: SR leukemia
77 µM: HS 578T breast
55.6 µM: DU-145 prostate
88.3 µM: SNB-75 CNS
not listed: OVCAR-5 ovarian | OVCAR-8 ovarian | T-47D breast
> 100 µM: all other assays above

NC(=S)N/N=C1\CCCCc2ccccc21
not listed: A498 renal | SK-MEL-5 melanoma | SK-MEL-28 melanoma | SK-OV-3 ovarian | SNB-75 CNS | IGROV1 ovarian | SF-539 CNS | MDA-MB-231 breast | UACC-62 melanoma | HS 578T breast | LOX IMVI melanoma | HOP-92 NSCLC
> 10 µM: all other assays above

Reference: PubChem BioAssay (NCI)
